The supplement of paper PMC10307832

Tests used:
Experiment in all cases: relative viability (nuclei count vs DMSO), 5 days (fraction); higher = more cells survive
[1] = compound: COC1=CC=C(C=C1)CN2C=CC3=C2C=C(C=C3)C(=O)NO + Cc1nc(NC(=O)N2CCC[C@H]2C(N)=O)sc1-c1ccnc(C(C)(C)C(F)(F)F)c1 [Alpelisib] (partner 2 µM)
In short: (§1)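 Medians of duplicate plates are given as relative viability. That measure is the nuclei count in treated wells divided by the count in vehicle wells. Counts were taken on 4× images of lung cancer cell lines in 1536-well plates, 5 days after pin-tool dosing the day after seeding with one drug alone or a fixed anchor-drug dose plus five library-drug doses (not always all listed) in √10 steps.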

[2] = compound: COC1=CC=C(C=C1)CN2C=CC3=C2C=C(C=C3)C(=O)NO + O=C(c1cc(Cc2n[nH]c(=O)c3ccccc23)ccc1F)N1CCN(C(=O)C2CC2)CC1 [Olaparib] (partner 8 µM)
In short: as §1

Veliparib + Bortezomib = compound: C[C@]1(c2nc3c(C(N)=O)cccc3[nH]2)CCCN1 [Veliparib] + CC(C)C[C@H](NC(=O)[C@H](Cc1ccccc1)NC(=O)c1cnccn1)B(O)O [Bortezomib] (partner 0.002 µM)
In short: as §1

Veliparib + Linsitinib = compound: C[C@]1(c2nc3c(C(N)=O)cccc3[nH]2)CCCN1 [Veliparib] + C[C@]1(O)C[C@@H](c2nc(-c3ccc4ccc(-c5ccccc5)nc4c3)c3c(N)nccn32)C1 [Linsitinib] (partner 1 µM)
In short: as §1

Cell Line	relative viability ([1]; first compound 0.08 µM)	relative viability ([1]; first compound 0.253 µM)	relative viability ([1]; first compound 0.8 µM)	relative viability ([1]; first compound 2.53 µM)	relative viability ([1]; first compound 8 µM)	relative viability ([2]; first compound 0.08 µM)	relative viability ([2]; first compound 0.253 µM)	relative viability ([2]; first compound 0.8 µM)	relative viability ([2]; first compound 2.53 µM)	relative viability ([2]; first compound 8 µM)	relative viability (Veliparib + Bortezomib; first compound 0.06325 µM)	relative viability (Veliparib + Bortezomib; first compound 0.2 µM)	relative viability (Veliparib + Bortezomib; first compound 0.6325 µM)	relative viability (Veliparib + Bortezomib; first compound 2 µM)	relative viability (Veliparib + Linsitinib; first compound 0.06325 µM)	relative viability (Veliparib + Linsitinib; first compound 0.2 µM)	relative viability (Veliparib + Linsitinib; first compound 0.6325 µM)	relative viability (Veliparib + Linsitinib; first compound 2 µM)	relative viability (Veliparib + Bortezomib; first compound 0.02 µM)	relative viability (Veliparib + Linsitinib; first compound 0.02 µM)
LC-2-ad	0.857	0.861	0.833	0.973	0.877	0.696	0.343	0.681	0.688	0.709	0.987	0.985	0.944	1.05	0.83	0.787	0.819	0.786	–	–
LOU-NH91	0.635	0.71	0.769	0.731	0.69	–	0.95	0.928	0.903	0.894	0.387	0.511	0.464	0.476	0.932	0.971	0.901	1.02	0.486	0.9
NCI-H727	0.525	0.515	0.626	0.654	0.562	0.68	0.709	0.755	0.649	0.622	0.754	0.755	0.82	0.815	0.219	0.253	0.293	0.24	0.381	0.284
NCI-H2347	0.763	1.14	1.03	1.18	1.01	0.53	0.53	0.651	0.67	0.524	0.687	1.09	1.21	0.959	0.831	0.912	0.896	0.947	1.13	0.999
NCI-H1993	0.613	0.671	0.669	0.745	0.795	0.699	1.31	1.25	1.06	0.885	1.31	1.13	1.03	1.06	0.683	0.738	0.7	0.726	0.994	0.7
HCC-827	0.975	0.947	1.01	0.995	0.969	0.573	0.697	0.655	0.68	0.531	0.914	1.01	1.13	1.13	0.899	0.816	0.949	0.939	1.02	0.96
NCI-H1975	0.699	0.711	0.644	0.592	0.547	0.77	0.815	0.697	0.678	0.785	0.465	0.429	0.412	0.424	0.951	1.03	0.88	0.931	0.394	0.933
NCI-H1793	0.626	0.874	0.786	0.546	0.728	–	0.911	0.898	0.893	0.865	–	–	–	–	0.804	0.956	0.728	0.828	–	0.864
